From paper PMC4774911, “Biochemical Screening of Five Protein Kinases from Plasmodium falciparum against 14,000 Cell-Active Compounds” (PLoS ONE, 2016)
Where “and” joins values, the source holds several entries; their conditions need not be identical. Equal entries are not always repeated.

How the values were obtained:
Assay in all cases: biochemical
Parameters in all cases: endogenous in cells; host or cells: K562 cell extract; species or system K562 (extract); replicate k of n = 2 (each experiment ID is one independent experiment; two experiment IDs per compound)
Settings in all cases: read-out: KDapp
[1] = biological target: PIM1 (Homo sapiens, UniProt P11309)
[2] = biological target: PIK3C3 (Homo sapiens, UniProt Q8NEB9)
[3] = biological target: T1, TBK1 (Homo sapiens, UniProt Q9UHD2)
T1 sequence (Q9UHD2 1-729): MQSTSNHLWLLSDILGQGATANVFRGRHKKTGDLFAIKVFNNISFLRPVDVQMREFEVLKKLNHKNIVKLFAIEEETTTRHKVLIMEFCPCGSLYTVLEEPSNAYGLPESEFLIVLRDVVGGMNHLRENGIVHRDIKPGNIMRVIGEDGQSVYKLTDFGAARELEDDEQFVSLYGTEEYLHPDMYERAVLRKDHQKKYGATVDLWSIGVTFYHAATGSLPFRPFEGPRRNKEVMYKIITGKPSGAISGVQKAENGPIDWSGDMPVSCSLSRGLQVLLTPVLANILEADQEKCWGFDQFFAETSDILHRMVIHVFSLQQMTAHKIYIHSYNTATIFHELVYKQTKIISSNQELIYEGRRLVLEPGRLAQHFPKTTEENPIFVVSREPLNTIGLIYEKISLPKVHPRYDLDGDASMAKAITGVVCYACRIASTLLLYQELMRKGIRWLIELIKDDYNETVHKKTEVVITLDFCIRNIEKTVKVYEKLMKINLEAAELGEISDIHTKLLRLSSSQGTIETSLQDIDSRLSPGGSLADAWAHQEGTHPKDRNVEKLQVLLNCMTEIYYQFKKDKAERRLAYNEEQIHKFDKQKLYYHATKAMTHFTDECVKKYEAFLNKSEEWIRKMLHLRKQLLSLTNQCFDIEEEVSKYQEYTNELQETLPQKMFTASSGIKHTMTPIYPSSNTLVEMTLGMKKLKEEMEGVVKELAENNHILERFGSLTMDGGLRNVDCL

[4] = biological target: T2, MAP4K2 (Homo sapiens, UniProt Q12851)
T2 sequence (Q12851 1-820): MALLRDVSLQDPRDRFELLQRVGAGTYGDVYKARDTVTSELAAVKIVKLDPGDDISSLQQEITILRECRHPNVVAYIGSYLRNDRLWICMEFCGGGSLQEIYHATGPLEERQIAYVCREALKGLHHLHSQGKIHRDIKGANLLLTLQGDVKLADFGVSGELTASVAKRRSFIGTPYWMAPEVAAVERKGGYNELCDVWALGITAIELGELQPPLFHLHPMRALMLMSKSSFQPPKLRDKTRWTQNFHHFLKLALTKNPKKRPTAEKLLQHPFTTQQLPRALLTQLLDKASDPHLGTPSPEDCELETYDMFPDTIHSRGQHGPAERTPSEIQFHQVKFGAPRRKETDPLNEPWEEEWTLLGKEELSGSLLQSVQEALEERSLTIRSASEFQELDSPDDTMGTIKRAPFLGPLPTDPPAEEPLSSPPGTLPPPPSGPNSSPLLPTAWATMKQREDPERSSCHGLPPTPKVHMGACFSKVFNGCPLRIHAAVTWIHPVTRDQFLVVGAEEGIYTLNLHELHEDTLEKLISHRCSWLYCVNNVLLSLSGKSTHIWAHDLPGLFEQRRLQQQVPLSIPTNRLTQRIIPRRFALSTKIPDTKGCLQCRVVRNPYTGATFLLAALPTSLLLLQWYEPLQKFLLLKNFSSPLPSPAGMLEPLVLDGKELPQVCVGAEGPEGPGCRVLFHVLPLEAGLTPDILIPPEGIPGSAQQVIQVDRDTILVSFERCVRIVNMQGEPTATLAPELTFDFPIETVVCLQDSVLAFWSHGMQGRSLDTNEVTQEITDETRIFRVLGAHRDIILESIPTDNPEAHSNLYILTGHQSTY

[5] = biological target: T3, TGFBR1 (Homo sapiens, UniProt P36897)
T3 sequence (P36897 1-503): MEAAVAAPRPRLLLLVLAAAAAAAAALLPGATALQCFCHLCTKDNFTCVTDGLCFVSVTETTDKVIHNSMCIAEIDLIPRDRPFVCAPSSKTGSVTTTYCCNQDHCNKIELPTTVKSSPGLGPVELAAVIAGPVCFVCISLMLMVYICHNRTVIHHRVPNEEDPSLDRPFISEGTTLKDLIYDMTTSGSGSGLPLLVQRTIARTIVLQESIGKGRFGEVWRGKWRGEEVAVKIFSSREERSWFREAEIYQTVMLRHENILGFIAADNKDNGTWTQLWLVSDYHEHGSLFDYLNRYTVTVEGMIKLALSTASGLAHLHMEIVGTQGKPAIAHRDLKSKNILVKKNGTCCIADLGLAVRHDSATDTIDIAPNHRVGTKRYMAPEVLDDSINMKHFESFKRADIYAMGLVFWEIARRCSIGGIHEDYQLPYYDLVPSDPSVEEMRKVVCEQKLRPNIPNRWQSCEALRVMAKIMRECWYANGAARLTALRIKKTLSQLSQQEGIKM

Sequence of PIM1 (P11309 whole entry): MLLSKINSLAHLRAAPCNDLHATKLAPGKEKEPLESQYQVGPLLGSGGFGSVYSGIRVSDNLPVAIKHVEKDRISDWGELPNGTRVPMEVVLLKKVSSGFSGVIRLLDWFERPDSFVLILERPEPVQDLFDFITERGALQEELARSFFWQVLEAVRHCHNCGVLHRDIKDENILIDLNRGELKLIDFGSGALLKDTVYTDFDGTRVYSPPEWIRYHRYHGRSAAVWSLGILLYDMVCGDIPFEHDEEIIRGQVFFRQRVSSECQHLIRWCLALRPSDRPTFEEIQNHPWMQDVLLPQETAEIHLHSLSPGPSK
Sequence of PIK3C3 (Q8NEB9 whole entry): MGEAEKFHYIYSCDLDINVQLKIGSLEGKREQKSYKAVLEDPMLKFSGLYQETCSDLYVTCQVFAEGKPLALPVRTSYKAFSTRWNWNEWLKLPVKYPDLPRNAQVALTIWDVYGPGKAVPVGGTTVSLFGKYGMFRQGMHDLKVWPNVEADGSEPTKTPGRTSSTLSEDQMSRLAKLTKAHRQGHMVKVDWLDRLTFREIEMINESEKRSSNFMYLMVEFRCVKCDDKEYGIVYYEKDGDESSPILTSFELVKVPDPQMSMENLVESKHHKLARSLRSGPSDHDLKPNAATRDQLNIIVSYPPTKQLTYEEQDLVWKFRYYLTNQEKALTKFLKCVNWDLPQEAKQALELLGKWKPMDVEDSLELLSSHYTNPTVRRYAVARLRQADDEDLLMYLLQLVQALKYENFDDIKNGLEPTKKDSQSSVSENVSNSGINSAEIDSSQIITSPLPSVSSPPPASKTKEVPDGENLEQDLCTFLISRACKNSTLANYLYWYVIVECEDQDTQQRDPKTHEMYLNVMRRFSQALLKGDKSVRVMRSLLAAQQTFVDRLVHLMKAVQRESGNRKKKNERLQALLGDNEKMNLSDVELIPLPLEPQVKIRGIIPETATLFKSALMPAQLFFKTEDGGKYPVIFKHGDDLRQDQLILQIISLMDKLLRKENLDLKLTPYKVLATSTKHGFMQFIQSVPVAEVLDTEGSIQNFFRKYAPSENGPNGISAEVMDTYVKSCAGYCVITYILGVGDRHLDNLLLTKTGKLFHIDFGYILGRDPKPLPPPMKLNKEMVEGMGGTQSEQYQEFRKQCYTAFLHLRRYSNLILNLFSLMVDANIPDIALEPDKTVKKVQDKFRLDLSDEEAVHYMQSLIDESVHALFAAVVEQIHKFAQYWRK

SMILES | Kd [1] | Kd [2] | Kd [3] | Kd [4] | Kd [5]
CN1CCN(c2ccc(Nc3ncc(C#N)c(Nc4ccccc4C(N)=O)n3)cc2)CC1.Cl [TCMDC-134116] | 3560 nM and 2970 nM | 957 nM | 229 nM and 220 nM | 648 nM | –
Cl.NCC1(c2nc(-c3ccc(Cl)c(O)c3)c(-c3ccncc3)[nH]2)CCCCC1 [TCMDC-141154] | – | – | – | – | 59.6 nM and 87.9 nM
